Assay results from patent US20240287124A1, “PRODRUGS OF 4'-SUBSTITUTED NUCLEOSIDE REVERSE TRANSCRIPTASE INHIBITORS” (Merck Sharp & Dohme LLC, priority 2023, published 2024).
Converted amounts (≈) assume the structure as drawn.

Key:
[1] = Aqueous solubility in PBS, pH 7.4; assay type: physicochemical; settings: phosphate buffered saline, pH 7.4, aqueous buffer, thermodynamic from solid, pH 7.4 phosphate buffered saline, 24 hours, amorphous or crystalline material; read-out: Aqu. Solubility
Method in brief: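 Excess solid suspended at 0.5 mg/mL in PBS pH 7.4 and stirred 24 hours. Filtrate (0.45 μm) diluted 1:1 with ACN:H2O and quantified by UPLC against a standard curve; residual solid phase checked by XRPD and PLM.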

[2] = system: HIV-1 wild-type (R8) virus; assay: Viral KINetics in Green cells (VIKING) assay, HIV-1 replication in MT4-GFP reporter cells; assay type: cell-based; settings: Human immunodeficiency virus 1, 10% normal human serum, MT4-GFP cells, HIV-1 wild-type (R8); read-out: Viking (10% NHS), IC50
Method in brief: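 Compounds in 3-fold, 10-point series (typical 4 μM-0.2 nM) in 10% normal human serum received MT4 GFP-reporter T cells pre-infected overnight with wild-type R8 virus (MOI ~0.01). Ratio of GFP-positive cells at 72 vs 48 h defined replication; IC50 from nonlinear 4-parameter dose-response fitting.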

[3] = Plasma stability in frozen human plasma; assay type: in vitro ADME; settings: frozen human plasma at 37° C., 0-3 hr; read-out: T1/2 Human Plasma (converted)
Experimental: Plasma stability of the compounds was evaluated in frozen human plasma at 37° C. in a 10% CO2 environment. The stability of the analyte was assessed by determining the percentage of drug loss over the course of 0, 0.25, 0.5, 1, and 3 hr. In addition, the appearance of Compound A was determined for the same time course. Percent of drug loss as based on ratio with internal standard. Analyte concentrations were measured by LC/MS/MS. Linear regression was performed with log transformed percent of average TO values and linear time values. The elimination rate constant (ke) was calculated from the slope of this regression line and the half-life (T½) calculated based on the elimination rate constant.

C#C[C@]1(CO)O[C@@H](n2ccc3c(N)nc(Cl)nc32)C[C@@H]1OC(=O)OC(C)C [Example 1, (2R,3S,5R)-5-(4-amino-2-chloro-7H-pyrrolo[2,3-d]pyrimidin-7-yl)-2-ethynyl-2-(hydroxymethyl)tetrahydrofuran-3-yl isopropyl carbonate]
solubility at 24 h [1]: 0.042 mg/mL (≈ 106 µM) | IC50 [2]: 0.074 µM | half-life [3]: 19.1 h

C#C[C@]1(COC(=O)C(C)C)O[C@@H](n2ccc3c(N)nc(Cl)nc32)C[C@@H]1OC(=O)C(C)C [Example 42, (2R,3S,5R)-5-(4-amino-2-chloro-7H-pyrrolo[2,3-d]pyrimidin-7-yl)-2-ethynyl-2-((isobutyryloxy)methyl)tetrahydrofuran-3-yl isobutyrate]
solubility at 24 h [1]: < 0.001 mg/mL | IC50 [2]: 0.0109 µM | half-life [3]: < 0.25 h

C#C[C@]1(COC(=O)OCCCCC)O[C@@H](n2ccc3c(N)nc(Cl)nc32)C[C@@H]1O [Example 14, ((2R,3S,5R)-5-(4-amino-2-chloro-7H-pyrrolo[2,3-d]pyrimidin-7-yl)-2-ethynyl-3-hydroxytetrahydrofuran-2-yl)methyl pentyl carbonate]
solubility at 24 h [1]: 0.113 mg/mL (≈ 267 µM) | IC50 [2]: 0.0025 µM | half-life [3]: < 0.25 h

C#C[C@]1(CO)O[C@@H](n2ccc3c(N)nc(Cl)nc32)C[C@@H]1OC(=O)c1ccccc1 [Example 5, (2R,3S,5R)-5-(4-amino-2-chloro-7H-pyrrolo[2,3-d]pyrimidin-7-yl)-2-ethynyl-2-(hydroxymethyl)tetrahydrofuran-3-yl benzoate]
solubility at 24 h [1]: < 0.001 mg/mL | IC50 [2]: 0.035 µM | half-life [3]: 57.7 h

C#C[C@]1(CO)O[C@@H](n2ccc3c(N)nc(Cl)nc32)C[C@@H]1OC(=O)C(CC)CC [Example 45, (2R,3S,5R)-5-(4-amino-2-chloro-7H-pyrrolo[2,3-d]pyrimidin-7-yl)-2-ethynyl-2-(hydroxymethyl)tetrahydrofuran-3-yl 2-ethylbutanoate]
solubility at 24 h [1]: 0.045 mg/mL (≈ 111 µM) | IC50 [2]: 0.143 µM | half-life [3]: 19.4 h

C#C[C@]1(COC(=O)C(C)C)O[C@@H](n2ccc3c(N)nc(Cl)nc32)C[C@@H]1O [Example 11, ((2R,3S,5R)-5-(4-amino-2-chloro-7H-pyrrolo[2,3-d]pyrimidin-7-yl)-2-ethynyl-3-hydroxytetrahydrofuran-2-yl)methyl isobutyrate]
solubility at 24 h [1]: 0.285 mg/mL (≈ 752 µM) | IC50 [2]: 0.0019 µM | half-life [3]: 0.042 h

C#C[C@]1(COC(=O)CCCC)O[C@@H](n2ccc3c(N)nc(Cl)nc32)C[C@@H]1O [Example 15, ((2R,3S,5R)-5-(4-amino-2-chloro-7H-pyrrolo[2,3-d]pyrimidin-7-yl)-2-ethynyl-3-hydroxytetrahydrofuran-2-yl)methyl pentanoate]
solubility at 24 h [1]: 0.055 mg/mL (≈ 140 µM) | IC50 [2]: 0.0023 µM | half-life [3]: < 0.25 h
